Measurements as given in the supplement of paper PMC10307832.

Key:
Assay in all cases: relative viability (nuclei count vs DMSO), 5 days (fraction); higher = more cells survive
201T = test system: 201T
How it was run: (§1)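 After 5 days of treatment, lung cancer cells in 1536-well plates were fixed and stained in a single step (final 0.05% Triton X-100, 1% formaldehyde, 1 ug/ml Hoechst) and their nuclei counted on 4× images. Treatment had been applied by pin tool the day after seeding as one drug alone or as a fixed anchor-drug dose with five library-drug doses (not always all listed) in √10 steps. Relative viability is the nuclei count of treated wells divided by that of vehicle wells, and values are medians of duplicate plates.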

ABC-1 = test system: ABC-1
How it was run: as §1

COR-L23 = test system: COR-L23
How it was run: as §1

EKVX = test system: EKVX
How it was run: as §1

EPLC-272H = test system: EPLC-272H
How it was run: as §1

HCC-44 = test system: HCC-44
How it was run: as §1

LOU-NH91 = test system: LOU-NH91
How it was run: as §1

NCI-H1563 = test system: NCI-H1563
How it was run: as §1

NCI-H1650 = test system: NCI-H1650
How it was run: as §1

NCI-H1734 = test system: NCI-H1734
How it was run: as §1

NCI-H1793 = test system: NCI-H1793
How it was run: as §1

NCI-H1993 = test system: NCI-H1993
How it was run: as §1

NCI-H2023 = test system: NCI-H2023
How it was run: as §1

NCI-H2085 = test system: NCI-H2085
How it was run: as §1

NCI-H2170 = test system: NCI-H2170
How it was run: as §1

NCI-H2347 = test system: NCI-H2347
How it was run: as §1

NCI-H2405 = test system: NCI-H2405
How it was run: as §1

NCI-H3122 = test system: NCI-H3122
How it was run: as §1

NCI-H441 = test system: NCI-H441
How it was run: as §1

NCI-H520 = test system: NCI-H520
How it was run: as §1

NCI-H647 = test system: NCI-H647
How it was run: as §1

PC-14 = test system: PC-14
How it was run: as §1

RERF-LC-KJ = test system: RERF-LC-KJ
How it was run: as §1

SW 900 = test system: SW 900
How it was run: as §1

CC(C)Oc1cc(Nc2nc(N[C@@H](C)c3ccc(F)cn3)ncc2Cl)n[nH]1 [AZ23] + CS(=O)(=O)N1CCN(Cc2cc3nc(-c4cccc5[nH]ncc45)nc(N4CCOCC4)c3s2)CC1 [Pictilisib] (partner 1 µM)
relative viability (201T; first compound 0.01 µM): 0.685 | relative viability (201T; first compound 0.03162 µM): 0.683 | relative viability (201T; first compound 0.3162 µM): 0.69 | relative viability (ABC-1; first compound 0.01 µM): 0.634 | relative viability (ABC-1; first compound 0.03162 µM): 0.909 | relative viability (ABC-1; first compound 0.3162 µM): 0.841 | relative viability (COR-L23; first compound 0.01 µM): 0.587 | relative viability (COR-L23; first compound 0.03162 µM): 0.947 | relative viability (COR-L23; first compound 0.3162 µM): 0.862 | relative viability (EKVX; first compound 0.01 µM): 0.481 | relative viability (EKVX; first compound 0.03162 µM): 0.466 | relative viability (EKVX; first compound 0.3162 µM): 0.444 | relative viability (EPLC-272H; first compound 0.01 µM): 0.258 | relative viability (EPLC-272H; first compound 0.03162 µM): 0.349 | relative viability (HCC-44; first compound 0.01 µM): 0.727 | relative viability (HCC-44; first compound 0.03162 µM): 0.629 | relative viability (HCC-44; first compound 0.3162 µM): 0.572 | relative viability (LOU-NH91; first compound 0.01 µM): 0.483 | relative viability (LOU-NH91; first compound 0.03162 µM): 0.525 | relative viability (LOU-NH91; first compound 0.3162 µM): 0.528 | relative viability (NCI-H1563; first compound 0.01 µM): 0.682 | relative viability (NCI-H1563; first compound 0.03162 µM): 0.653 | relative viability (NCI-H1563; first compound 0.3162 µM): 0.674 | relative viability (NCI-H1650; first compound 0.01 µM): 0.553 | relative viability (NCI-H1650; first compound 0.03162 µM): 0.585 | relative viability (NCI-H1650; first compound 0.3162 µM): 0.514 | relative viability (NCI-H1734; first compound 0.01 µM): 0.429 | relative viability (NCI-H1734; first compound 0.03162 µM): 0.543 | relative viability (NCI-H1734; first compound 0.3162 µM): 0.487 | relative viability (NCI-H1793; first compound 0.01 µM): 0.318 | relative viability (NCI-H1793; first compound 0.03162 µM): 0.369 | relative viability (NCI-H1793; first compound 0.3162 µM): 0.371 | relative viability (NCI-H1993; first compound 0.01 µM): 0.755 | relative viability (NCI-H1993; first compound 0.3162 µM): 0.869 | relative viability (NCI-H2023; first compound 0.03162 µM): 0.248 | relative viability (NCI-H2023; first compound 0.3162 µM): 0.192 | relative viability (NCI-H2085; first compound 0.01 µM): 0.556 | relative viability (NCI-H2085; first compound 0.03162 µM): 0.563 | relative viability (NCI-H2085; first compound 0.3162 µM): 0.446 | relative viability (NCI-H2170; first compound 0.01 µM): 0.288 | relative viability (NCI-H2170; first compound 0.03162 µM): 0.325 | relative viability (NCI-H2170; first compound 0.3162 µM): 0.304 | relative viability (NCI-H2347; first compound 0.01 µM): 0.525 | relative viability (NCI-H2347; first compound 0.03162 µM): 0.681 | relative viability (NCI-H2347; first compound 0.3162 µM): 0.543 | relative viability (NCI-H2405; first compound 0.01 µM): 0.412 | relative viability (NCI-H2405; first compound 0.03162 µM): 0.575 | relative viability (NCI-H2405; first compound 0.3162 µM): 0.429 | relative viability (NCI-H3122; first compound 0.01 µM): 0.658 | relative viability (NCI-H3122; first compound 0.03162 µM): 0.598 | relative viability (NCI-H3122; first compound 0.3162 µM): 0.579 | relative viability (NCI-H441; first compound 0.01 µM): 0.658 | relative viability (NCI-H441; first compound 0.03162 µM): 0.601 | relative viability (NCI-H441; first compound 0.3162 µM): 0.457 | relative viability (NCI-H520; first compound 0.01 µM): 0.327 | relative viability (NCI-H520; first compound 0.03162 µM): 0.309 | relative viability (NCI-H520; first compound 0.3162 µM): 0.304 | relative viability (NCI-H647; first compound 0.03162 µM): 0.5 | relative viability (NCI-H647; first compound 0.3162 µM): 0.447 | relative viability (PC-14; first compound 0.01 µM): 0.757 | relative viability (PC-14; first compound 0.03162 µM): 0.689 | relative viability (PC-14; first compound 0.3162 µM): 0.739 | relative viability (RERF-LC-KJ; first compound 0.01 µM): 0.546 | relative viability (RERF-LC-KJ; first compound 0.03162 µM): 0.507 | relative viability (RERF-LC-KJ; first compound 0.3162 µM): 0.502

CC(C)Oc1cc(Nc2nc(N[C@@H](C)c3ccc(F)cn3)ncc2Cl)n[nH]1 [AZ23] + Nc1nc2[nH]cc(CCc3ccc(C(=O)N[C@@H](CCC(=O)O)C(=O)O)cc3)c2c(=O)[nH]1 [Pemetrexed] (partner 0.2 µM)
relative viability (201T; first compound 0.01 µM): 0.251 | relative viability (201T; first compound 0.03162 µM): 0.348 | relative viability (201T; first compound 0.3162 µM): 0.336 | relative viability (COR-L23; first compound 0.01 µM): 0.172 | relative viability (COR-L23; first compound 0.03162 µM): 0.193 | relative viability (COR-L23; first compound 0.3162 µM): 0.189 | relative viability (EKVX; first compound 0.01 µM): 0.24 | relative viability (EKVX; first compound 0.03162 µM): 0.5 | relative viability (EKVX; first compound 0.3162 µM): 0.381 | relative viability (EPLC-272H; first compound 0.03162 µM): 0.322 | relative viability (EPLC-272H; first compound 0.3162 µM): 0.302 | relative viability (HCC-44; first compound 0.01 µM): 0.373 | relative viability (HCC-44; first compound 0.03162 µM): 0.66 | relative viability (HCC-44; first compound 0.3162 µM): 0.698 | relative viability (LOU-NH91; first compound 0.01 µM): 0.505 | relative viability (LOU-NH91; first compound 0.03162 µM): 0.386 | relative viability (LOU-NH91; first compound 0.3162 µM): 0.394 | relative viability (NCI-H1563; first compound 0.01 µM): 0.69 | relative viability (NCI-H1563; first compound 0.03162 µM): 0.934 | relative viability (NCI-H1563; first compound 0.3162 µM): 0.885 | relative viability (NCI-H1650; first compound 0.01 µM): 0.295 | relative viability (NCI-H1650; first compound 0.03162 µM): 0.406 | relative viability (NCI-H1650; first compound 0.3162 µM): 0.359 | relative viability (NCI-H1734; first compound 0.01 µM): 0.358 | relative viability (NCI-H1734; first compound 0.03162 µM): 0.454 | relative viability (NCI-H1734; first compound 0.3162 µM): 0.41 | relative viability (NCI-H1793; first compound 0.01 µM): 0.986 | relative viability (NCI-H1793; first compound 0.03162 µM): 0.92 | relative viability (NCI-H1793; first compound 0.3162 µM): 0.979 | relative viability (NCI-H1993; first compound 0.01 µM): 0.589 | relative viability (NCI-H1993; first compound 0.03162 µM): 0.564 | relative viability (NCI-H1993; first compound 0.3162 µM): 0.563 | relative viability (NCI-H2023; first compound 0.03162 µM): 0.268 | relative viability (NCI-H2023; first compound 0.3162 µM): 0.219 | relative viability (NCI-H2085; first compound 0.01 µM): 0.806 | relative viability (NCI-H2085; first compound 0.03162 µM): 0.907 | relative viability (NCI-H2085; first compound 0.3162 µM): 0.994 | relative viability (NCI-H2170; first compound 0.01 µM): 0.261 | relative viability (NCI-H2170; first compound 0.03162 µM): 0.265 | relative viability (NCI-H2170; first compound 0.3162 µM): 0.256 | relative viability (NCI-H2347; first compound 0.01 µM): 0.379 | relative viability (NCI-H2347; first compound 0.03162 µM): 0.412 | relative viability (NCI-H2347; first compound 0.3162 µM): 0.459 | relative viability (NCI-H2405; first compound 0.01 µM): 1.02 | relative viability (NCI-H2405; first compound 0.03162 µM): 1.04 | relative viability (NCI-H2405; first compound 0.3162 µM): 0.879 | relative viability (NCI-H3122; first compound 0.01 µM): 0.151 | relative viability (NCI-H3122; first compound 0.03162 µM): 0.199 | relative viability (NCI-H3122; first compound 0.3162 µM): 0.195 | relative viability (NCI-H441; first compound 0.01 µM): 0.262 | relative viability (NCI-H441; first compound 0.03162 µM): 0.242 | relative viability (NCI-H441; first compound 0.3162 µM): 0.267 | relative viability (NCI-H520; first compound 0.01 µM): 0.678 | relative viability (NCI-H520; first compound 0.03162 µM): 0.759 | relative viability (NCI-H520; first compound 0.3162 µM): 0.615 | relative viability (NCI-H647; first compound 0.01 µM): 0.151 | relative viability (NCI-H647; first compound 0.03162 µM): 0.192 | relative viability (NCI-H647; first compound 0.3162 µM): 0.182 | relative viability (PC-14; first compound 0.01 µM): 0.127 | relative viability (PC-14; first compound 0.03162 µM): 0.136 | relative viability (PC-14; first compound 0.3162 µM): 0.147 | relative viability (RERF-LC-KJ; first compound 0.01 µM): 0.493 | relative viability (RERF-LC-KJ; first compound 0.03162 µM): 0.463 | relative viability (RERF-LC-KJ; first compound 0.3162 µM): 0.495 | relative viability (SW 900; first compound 0.01 µM): 0.491 | relative viability (SW 900; first compound 0.3162 µM): 0.514
